Test results from the supplement of paper PMC10307832.

Assays:
Assay in all cases: relative viability (nuclei count vs DMSO), 5 days (fraction); higher = more cells survive
5-Fluorouracil + AZD7762 = compound: O=c1[nH]cc(F)c(=O)[nH]1 [5-Fluorouracil] + NC(=O)Nc1cc(-c2cccc(F)c2)sc1C(=O)N[C@H]1CCCNC1 [AZD7762] (partner 0.2 µM)
Procedure, shortened: (§1)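 Lung cancer cell lines were pin-tool dosed in 1536-well plates on the day after seeding, with either a lone drug or a fixed anchor-drug dose plus five library-drug doses (not always all listed) in √10 steps. Nuclei were counted on 4× images after 5 days. Relative viability is the ratio of treated-well to vehicle-well nuclei counts, with each value a median of duplicate plates.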

[1] = compound: CN[C@@H]1C[C@H]2O[C@@](C)([C@@H]1OC)n1c3ccccc3c3c4c(c5c6ccccc6n2c5c31)C(=O)NC4 [Staurosporine] + COc1cc2c(Oc3ccc(NC(=O)C4(C(=O)Nc5ccc(F)cc5)CC4)cc3F)ccnc2cc1OCCCN1CCOCC1 [Foretinib] (partner 0.25 µM)
Procedure, shortened: as §1

Sulindac + Foretinib = compound: CC1=C(CC(=O)O)c2cc(F)ccc2/C1=C\c1ccc([S+](C)[O-])cc1 [Sulindac] + COc1cc2c(Oc3ccc(NC(=O)C4(C(=O)Nc5ccc(F)cc5)CC4)cc3F)ccnc2cc1OCCCN1CCOCC1 [Foretinib] (partner 0.25 µM)
Procedure, shortened: as §1

[2] = compound: CN[C@@H]1C[C@H]2O[C@@](C)([C@@H]1OC)n1c3ccccc3c3c4c(c5c6ccccc6n2c5c31)C(=O)NC4 [Staurosporine] + CCNC(=O)c1noc(-c2cc(C(C)C)c(O)cc2O)c1-c1ccc(CN2CCOCC2)cc1 [Luminespib] (partner 0.01 µM)
Procedure, shortened: as §1

| Cell Line | relative viability (5-Fluorouracil + AZD7762; first compound 0.02 µM) | relative viability (5-Fluorouracil + AZD7762; first compound 0.2 µM) | relative viability (5-Fluorouracil + AZD7762; first compound 0.6325 µM) | relative viability (5-Fluorouracil + AZD7762; first compound 2 µM) | relative viability ([1]; first compound 0.005 µM) | relative viability ([1]; first compound 0.01581 µM) | relative viability ([1]; first compound 0.05 µM) | relative viability ([1]; first compound 0.1581 µM) | relative viability ([1]; first compound 0.5 µM) | relative viability (Sulindac + Foretinib; first compound 0.08 µM) | relative viability (Sulindac + Foretinib; first compound 0.253 µM) | relative viability (Sulindac + Foretinib; first compound 0.8 µM) | relative viability (Sulindac + Foretinib; first compound 2.53 µM) | relative viability (Sulindac + Foretinib; first compound 8 µM) | relative viability ([2]; first compound 0.005 µM) | relative viability ([2]; first compound 0.01581 µM) | relative viability ([2]; first compound 0.05 µM) | relative viability ([2]; first compound 0.1581 µM) | relative viability ([2]; first compound 0.5 µM) |
| --- | --- | --- | --- | --- | --- | --- | --- | --- | --- | --- | --- | --- | --- | --- | --- | --- | --- | --- | --- |
| NCI-H358 | 0.595 | 0.505 | 0.477 | 0.293 | 0.835 | 0.241 | 0.11 | 0.0647 | 0.0577 | 0.85 | 0.763 | 0.572 | 0.621 | 0.826 | 0.563 | 0.198 | 0.359 | 0.167 | 0.0923 |
| NCI-H1755 | 0.4 | 0.31 | 0.285 | 0.28 | 0.729 | 0.471 | 0.261 | 0.189 | 0.164 | 0.976 | 0.974 | 0.848 | 0.916 | 1.03 | 0.276 | 0.214 | 0.155 | 0.195 | 0.155 |
| A-427 | 0.676 | 0.805 | 0.308 | 0.253 | 1.06 | 0.78 | 0.282 | 0.198 | 0.121 | 1.08 | 1.05 | 0.979 | 1.17 | 1.02 | 0.712 | 0.463 | 0.231 | 0.159 | 0.149 |
| PC-14 | 0.361 | 0.431 | 0.389 | 0.278 | 0.929 | 0.718 | 0.38 | 0.102 | 0.0787 | 1.07 | 1.14 | 0.671 | 1.04 | 1.01 | 0.11 | 0.101 | 0.103 | 0.132 | 0.118 |
| LCLC-97TM1 | 0.16 | 0.276 | 0.22 | 0.132 | 0.988 | 0.558 | 0.454 | 0.382 | 0.461 | 0.939 | 0.992 | 0.804 | 0.803 | 0.962 | 0.829 | 0.416 | 0.338 | 0.268 | 0.221 |
| BEN | 0.791 | 0.804 | 0.606 | 0.679 | 0.688 | 0.418 | 0.248 | 0.221 | 0.187 | 0.834 | 0.693 | 0.57 | 0.569 | 0.771 | 0.397 | 0.256 | 0.383 | 0.152 | 0.129 |
| NCI-H2085 | 0.938 | 0.935 | 0.837 | 0.644 | 0.516 | 0.437 | 0.324 | 0.195 | 0.26 | 0.763 | 0.987 | 0.882 | 0.914 | 1.08 | 0.39 | 0.315 | 0.2 | 0.227 | 0.171 |
| LC-2-ad | 0.922 | 0.536 | 0.331 | 0.253 | 0.845 | 0.537 | 0.236 | 0.175 | 0.169 | 0.855 | 1.01 | 0.877 | 0.872 | 1.02 | 0.976 | 0.41 | 0.341 | 0.219 | 0.185 |
| ABC-1 | 0.754 | 0.933 | 0.722 | 0.634 | 0.394 | 0.367 | 0.249 | 0.269 | 0.151 | 1.02 | 0.96 | 1.02 | 0.867 | 1.33 | 0.261 | 0.274 | 0.147 | 0.156 | 0.0847 |
| EPLC-272H | 0.243 | 0.122 | 0.109 | 0.102 | 0.608 | 0.136 | 0.174 | 0.0912 | 0.121 | 0.669 | 0.763 |  | 0.711 | 0.745 | 0.206 | 0.0928 | 0.0679 | 0.0575 | 0.075 |
| NCI-H1437 | 0.34 | 0.199 | 0.17 | 0.116 | 1.13 |  | 0.854 | 0.58 | 0.169 | 1.33 | 1.23 | 1 | 1.28 | 1.42 | 1.05 |  | 0.774 | 0.367 | 0.26 |
| EKVX | 0.322 | 0.157 | 0.145 | 0.157 | 0.355 | 0.133 | 0.379 | 0.246 | 0.123 | 0.666 | 0.942 | 0.421 | 0.683 | 0.995 | 0.65 | 0.385 | 0.277 | 0.176 | 0.107 |
| NCI-H1651 | 0.458 | 0.234 | 0.186 |  | 0.74 | 0.615 | 0.346 | 0.259 | 0.0644 | 0.899 | 0.848 |  | 0.764 | 0.88 | 0.793 | 0.614 | 0.459 | 0.173 | 0.116 |
| HCC-15 | 1.28 | 1.2 | 0.448 | 0.39 | 0.975 |  | 0.483 | 0.13 | 0.107 | 1.19 | 1.02 | 0.905 | 0.978 | 1.33 | 0.303 |  | 0.219 | 0.169 | 0.165 |
| LCLC-103H | 0.734 | 0.758 | 0.546 | 0.381 | 0.668 | 0.178 | 0.171 | 0.161 | 0.142 | 0.817 | 0.822 | 0.681 | 0.734 | 0.916 | 0.8 | 0.369 | 0.157 | 0.18 | 0.177 |
| NCI-H2347 | 0.63 | 0.45 | 0.339 | 0.343 | 1.04 | 0.588 | 0.374 | 0.289 | 0.422 | 1.08 | 0.562 | 0.645 | 1.26 | 0.807 | 0.4 | 0.262 | 0.216 | 0.228 | 0.263 |
| NCI-H1915 | 0.409 | 0.683 | 0.643 | 0.577 |  | 0.542 | 0.552 | 0.283 | 0.278 | 1.26 | 1.2 |  | 1.11 | 1.15 | 0.824 | 0.247 | 0.207 | 0.105 | 0.0895 |
